Data reported in PMC5880808, “A lever-like transduction pathway for long-distance chemical- and mechano-gating of the mechanosensitive Piezo1 channel” (Nature Communications, 2018).

What was measured:
mPiezo1 [1] = biological target: T1, mPiezo1 (Mus musculus, UniProt E2JF22); assay: Whole-cell poking-induced currents; format: cell-based; settings: for effect on poking currents and inactivation: compound applied to the intracellular side; for increase of poking-induced whole-cell currents: mPiezo1-mRuby2-expressing cells, puffing application of 1 mM Jedi, −80 mV
T1 construct: The full-length mPiezo1 has 2547 amino acids in each monomer; expressed in transfected cells; host or cells: HEK293T
Protocol: Protocols for HEK293T cell culture, transient transfection, and patch-clamp experiments with an Axopatch 200B amplifier (Axon Instruments) or HEKA EPC10 were essentially similar to how previously described[6],[8]. […] The extracellular solution was composed of (in mM) 133 NaCl, 3 KCl, 2.5 CaCl2, 1 MgCl2, 10 HEPES (pH 7.3 with NaOH), and 10 glucose. All experiments were carried out at room temperature. Currents were sampled at 20 kHz, filtered at 2 kHz using the Clampex 10.4 software (Axon Instruments) or Patchmaster software. Leak currents before mechanical stimulations were subtracted offline from the current traces.
Mechanical stimulation was delivered to the cell during the patch-clamp recording at an angle of 80° using a fire-polished glass pipette (tip diameter 3–4 μm) as previously described[5],[6]. Downward movement of the probe toward the cell was driven by a Clampex-controlled piezo-electric crystal micro-stage (E625 LVPZT Controller/Amplifier; Physik Instrument). […] The poking distance shown in Fig. 3 includes the initial distance between the poking pipette and the cell, which cannot be accurately controlled, and the applied poking distance controlled by the Clampex-controlled piezo-electric crystal micro-stage. Thus, the actual poking distance on the cell membrane should be equal to the applied poking distance minus the initial distance between the poking pipette and the cell under recording. In the step-wise poking experiment, the patch was readily lost when the cell was broken at the end of the poking.
Stock solutions of Jedi1 (100 mM), Jedi2 (100 mM), and Yoda1 (30 mM) were solubilized in DMSO and diluted to the desired final concentrations as indicated in the figure legends using external or internal solutions. In Figs. 3a, 5b, and 6e, the compound solutions were puffed onto the cells using a multichannel perfusion system (MPS-2, World Precision Instruments) while continuously recording using a gap-free mode. In other conditions, the compounds were directly added to the recording chamber or pipette solution, and the currents were recorded within 10 min. In Figs. 5b and 6e, we used the Piezo1-KO-HEK cell line in which the endogenous Piezo1 gene is disrupted.

[2] = biological target: T2, C-terminal extracellular domain (CED; 2214–2457) (Mus musculus, UniProt E2JF22); assay: SPR binding to immobilized purified protein; settings: without C12E10 detergent
T2 construct: C-terminal extracellular domain (CED; 2214–2457); made in house
T2 sequence (E2JF22 2214-2457): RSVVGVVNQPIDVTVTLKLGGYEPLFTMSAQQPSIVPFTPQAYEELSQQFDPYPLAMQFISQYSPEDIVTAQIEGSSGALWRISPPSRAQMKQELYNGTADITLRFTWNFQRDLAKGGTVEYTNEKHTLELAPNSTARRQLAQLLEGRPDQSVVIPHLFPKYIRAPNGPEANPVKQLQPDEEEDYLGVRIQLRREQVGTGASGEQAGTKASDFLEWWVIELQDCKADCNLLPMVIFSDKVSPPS
Protocol: Real-time binding and analysis by SPR were conducted on BIAcore T200 instrument (GE Healthcare) at 25 °C. Proteins were immobilized on a research-grade CM5 sensor chip by amine-coupling methods. During the pH scouting process, 10 mM sodium acetate at various pH including 4.0, 4.5, 5.0, and 5.5 and protein concentrations varying between 10 and 100 μg/ml were screened before immobilization. Except pH 4.5 for mPiezo1-(1–2190), pH 5.0 was used for all other proteins, including mPiezo1, CED, Δ15-16, and Δ19-20. All proteins were diluted to 50 μg/ml in buffer containing 10 mM sodium acetate at the abovementioned pH, 0.026% C12E10 detergent, and 150 mM NaCl, except that the soluble CED proteins, which were diluted in 150 mM NaCl without detergent. During the immobilization process, the CM5 sensor was activated with NHS first, allowing the amine-containing proteins to be coupled to the sensor through NHS. Each CM5 sensor had 4 flow cells, and the flow cells 1 and 3 were often left blank as a reference. Diluted Piezo1 wild-type or mutant proteins (50 μg/ml) in their respective buffers were immobilized on the flow cell 2 or flow cell 4 to the similar level as indicated by the “response bound” parameter.
For data collection, compounds at various concentrations were diluted in a running buffer containing 1× PBS, 0.026% detergent C12E10, and 0.05% Surfactant P20 (GE Healthcare Bio-Sciences AB) and injected over the flow cells with at a 30 μl/min flow rate. The proteins and the compounds were allowed to associate for 180 s and then dissociate for 180 s. Data were analyzed with the BIAcore T200 evaluation software by fitting to a 1:1 affinity-binding model.

mPiezo1 [3] = biological target: T1, mPiezo1; assay: Inside-out patch recording of single-channel activity, compound in pipette solution; format: cell-based; settings: −80 mV
Text: For inside-out patch-clamp recordings using an Axopatch 200B amplifier (Axon Instruments), the “extracellular” pipette solution consists of (in mM) the following: 130 NaCl, 5 KCl, 10 HEPES, 1 CaCl2, 1 MgCl2, and 10 TEA-Cl (pH 7.3 with NaOH), and the intracellular “bath” solution contains (in mM) the following: 140 KCl, 10 HEPES, 1 MgCl2, and 10 glucose (pH 7.3 with KOH). All experiments were done at room temperature. Currents were sampled at 20 kHz using Clampex 10.4 software (Axon Instruments) and filtered at 2 kHz. Additional offline filtering of 1 kHz was applied to the recordings for display. Single-channel activity in the presence or absence of Jedi or Yoda1 was continuously recorded for 5 min at −80 mV. The single-channel open probability (NPo) and unitary conductance of mPiezo1 were analyzed using the pClamp software built-in features. Current amplitudes of individual cells recorded at −80 mV were calculated from Gaussian fits to the current amplitude histograms.

mPiezo1 [4] = biological target: T1, mPiezo1; assay: Fura-2 single-cell Ca2+ imaging of mPiezo1-mCherry-transfected HEK293T cells; format: cell-based; settings: for Ca2+ response (Fura-2 ratio): mCherry-positive HEK293T cells transfected with mPiezo1-mCherry
Protocol: Fura-2 single-cell Ca^2+ imaging was performed according to the previous protocol. In brief, mCherry-Piezo1 cDNA (1 μg)-transfected HEK293T cells were plated onto 12-mm round glass coverslips, which were coated with poly-D-lysine and placed in 24-well plates, and subject to Fura-2 single-cell Ca^2+ imaging about 36 h post transfection. Cells were washed with buffer containing 1× HBSS (1.3 mM Ca^2+) and 10 mM HEPES (pH 7.2), incubated with 2.5 μM Fura-2 and 0.05% Pluronic F-127 (Life Technologies) for 30 min, then washed again with the previously mentioned buffer. The coverslip was mounted into an inverted Nikon-Tie microscope equipped with a CoolSNAP charge-coupled devise (CCD) camera and Lambda XL light box (Sutter Instrument), and mCherry-positive and -negative cells were selected for measurement of the 340/380 ratio with a ×20 objective (numerical aperture 0.75) using the MetaFluor Fluorescence Ratio Imaging software (Molecular Device).

[5] = compound applied to the extracellular side

T1 sequence (E2JF22 whole entry): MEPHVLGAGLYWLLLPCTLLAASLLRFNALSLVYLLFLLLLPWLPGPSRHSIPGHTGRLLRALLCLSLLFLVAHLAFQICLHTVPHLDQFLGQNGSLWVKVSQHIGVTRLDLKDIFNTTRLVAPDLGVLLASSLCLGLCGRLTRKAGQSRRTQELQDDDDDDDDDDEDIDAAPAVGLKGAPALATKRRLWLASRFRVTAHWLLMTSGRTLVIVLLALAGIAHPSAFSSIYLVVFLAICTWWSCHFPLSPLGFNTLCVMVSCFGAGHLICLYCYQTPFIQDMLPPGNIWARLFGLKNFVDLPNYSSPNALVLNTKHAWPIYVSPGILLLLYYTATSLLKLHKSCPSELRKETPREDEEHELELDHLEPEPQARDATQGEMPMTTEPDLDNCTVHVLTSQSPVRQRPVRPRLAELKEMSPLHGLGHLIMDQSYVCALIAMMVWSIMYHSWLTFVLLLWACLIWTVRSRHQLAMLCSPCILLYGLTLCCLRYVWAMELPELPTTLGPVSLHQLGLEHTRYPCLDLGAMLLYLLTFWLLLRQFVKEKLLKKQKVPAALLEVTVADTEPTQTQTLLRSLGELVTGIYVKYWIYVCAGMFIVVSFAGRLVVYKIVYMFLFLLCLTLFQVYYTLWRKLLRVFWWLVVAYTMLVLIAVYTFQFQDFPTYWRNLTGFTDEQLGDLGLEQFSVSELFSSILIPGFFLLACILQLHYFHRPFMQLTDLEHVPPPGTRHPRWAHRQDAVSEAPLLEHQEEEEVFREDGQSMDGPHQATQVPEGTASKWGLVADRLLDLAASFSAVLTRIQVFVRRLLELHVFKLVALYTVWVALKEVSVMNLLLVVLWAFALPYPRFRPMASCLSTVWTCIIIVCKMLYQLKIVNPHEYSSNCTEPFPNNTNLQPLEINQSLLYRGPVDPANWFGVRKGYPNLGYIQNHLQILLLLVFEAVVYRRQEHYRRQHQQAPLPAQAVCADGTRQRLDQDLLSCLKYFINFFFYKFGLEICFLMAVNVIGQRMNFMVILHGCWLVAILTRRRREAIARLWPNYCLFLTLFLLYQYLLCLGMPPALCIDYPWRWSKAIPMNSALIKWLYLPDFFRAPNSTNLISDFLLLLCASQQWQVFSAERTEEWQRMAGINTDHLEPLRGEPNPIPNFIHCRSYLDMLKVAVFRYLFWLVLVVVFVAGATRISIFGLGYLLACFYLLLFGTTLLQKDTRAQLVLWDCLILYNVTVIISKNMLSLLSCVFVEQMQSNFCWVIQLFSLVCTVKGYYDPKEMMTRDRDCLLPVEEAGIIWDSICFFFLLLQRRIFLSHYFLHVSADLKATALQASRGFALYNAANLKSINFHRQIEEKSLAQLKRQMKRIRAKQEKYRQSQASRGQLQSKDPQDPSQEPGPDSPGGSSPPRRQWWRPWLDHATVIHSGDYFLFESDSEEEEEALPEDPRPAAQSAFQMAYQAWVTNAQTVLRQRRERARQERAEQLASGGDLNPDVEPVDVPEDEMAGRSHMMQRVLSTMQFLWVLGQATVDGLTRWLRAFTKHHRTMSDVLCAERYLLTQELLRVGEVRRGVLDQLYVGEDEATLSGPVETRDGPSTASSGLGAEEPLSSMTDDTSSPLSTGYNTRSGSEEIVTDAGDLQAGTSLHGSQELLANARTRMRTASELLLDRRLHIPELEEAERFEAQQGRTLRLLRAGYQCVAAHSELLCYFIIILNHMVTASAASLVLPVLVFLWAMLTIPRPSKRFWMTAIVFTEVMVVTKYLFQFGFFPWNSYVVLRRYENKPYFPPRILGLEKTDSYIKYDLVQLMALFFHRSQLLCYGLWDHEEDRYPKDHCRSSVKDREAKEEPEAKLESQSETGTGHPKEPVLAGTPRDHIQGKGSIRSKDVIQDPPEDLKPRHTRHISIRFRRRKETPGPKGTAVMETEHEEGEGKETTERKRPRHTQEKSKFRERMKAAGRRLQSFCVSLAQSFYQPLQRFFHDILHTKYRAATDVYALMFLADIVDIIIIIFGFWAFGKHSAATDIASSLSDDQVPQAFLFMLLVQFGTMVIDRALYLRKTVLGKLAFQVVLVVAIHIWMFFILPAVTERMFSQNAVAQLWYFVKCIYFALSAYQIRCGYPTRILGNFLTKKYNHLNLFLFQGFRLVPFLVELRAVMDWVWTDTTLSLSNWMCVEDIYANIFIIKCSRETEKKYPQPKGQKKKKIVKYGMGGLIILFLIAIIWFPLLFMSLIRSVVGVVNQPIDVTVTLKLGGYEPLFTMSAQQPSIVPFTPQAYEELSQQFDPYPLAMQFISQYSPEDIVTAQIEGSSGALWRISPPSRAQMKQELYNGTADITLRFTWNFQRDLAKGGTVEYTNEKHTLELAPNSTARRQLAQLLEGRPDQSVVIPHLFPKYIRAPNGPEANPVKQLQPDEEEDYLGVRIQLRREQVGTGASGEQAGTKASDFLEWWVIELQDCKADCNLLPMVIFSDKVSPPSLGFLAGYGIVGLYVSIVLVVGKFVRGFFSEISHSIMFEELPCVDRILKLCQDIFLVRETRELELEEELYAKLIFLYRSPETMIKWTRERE

| Compound | inactivation tau of poking-induced currents (mPiezo1 [1]; [5]) | poking-induced maximal currents (Imax) (mPiezo1 [1]; [5]) | effect on poking currents and inactivation (mPiezo1 [1]) | increase of poking-induced whole-cell currents (mPiezo1 [1]) | binding to purified CED proteins (SPR) [2] | fold change of the open probability (NPo) (mPiezo1 [3]) | Ca2+ response (Fura-2 ratio) (mPiezo1 [4]) | time course of the induced Ca2+ response (mPiezo1 [4]; Fura-2 single-cell imaging) |
| --- | --- | --- | --- | --- | --- | --- | --- | --- |
| Cc1oc(-c2ccccc2)cc1C(=O)O [Jedi1] | slowed the inactivation tau | significantly enhanced | had no effect | 3.8 ± 0.5 folds | none | 9.6 ± 2.4 fold | caused an increase in Ca^2+ |  |
| Cc1oc(-c2cccs2)cc1C(=O)O [Jedi2] |  |  |  | 5.4 ± 0.7 folds | none | significant increase in the opening probability | caused an increase in Ca^2+ |  |
| Clc1cccc(Cl)c1CSc1nnc(-c2cnccn2)s1 [Yoda1, reference compound] |  |  | remained effective in enhancing the poking currents and slowing the inactivation |  | none | 14.8 ± 0.6 fold | also responded to Yoda1 | slow activation, no decay, and poor reversibility |
